In paper PMC9307946, “A peptoid-based inhibitor of protein arginine methyltransferase 1 (PRMT1) induces apoptosis and autophagy in cancer cells” (The Journal of Biological Chemistry, 2022):
Several values for one entry are separate records, joined by “and”; a condition that tells them apart may be missing. Identical values can stand only once. *1 amine or outer side, *2 acyl side, *3 side chain or, on linkers, in order; H or OH if unused. Where a SMILES comes first, the peptide text is derived from it. [ ]: non-standard residue; d: D form. X2 = N=C(CCl)NCCC[C@H](N[*:1])C(=O)[*:2]; X1 = N=C(CCl)NCCCN(CC(=O)[*:2])[*:1]; Gly(N-CH2CH2OH) = O=C(O)CNCCO; Nleu = CC(C)CNCC(=O)O; Nlys = NCCCCNCC(=O)O; Sar = CNCC(=O)O

Columns and labels:
PRMT1 = target: T1, PRMT1 (Homo sapiens, UniProt Q99873); assay: MTase-Glo methyltransferase IC50 assay, PRMT1; assay type: biochemical; details: for IC50: 200 nM PRMT1, AcH4-21 substrate 225 μM
T1 construct: made in house
Procedure: (§1) The IC50 value for the peptoid inhibitors were measured using the MTase-Glo methyltransferase assay kit (Promega). The peptoid was incubated in assay buffer (20 mM Tris-HCl pH 8.0, 50 mM NaCl, 1 mM EDTA, 3 mM MgCl2, 0.1 mg/ml BSA, 1 mM DTT) and […] (0–1000 μM). After a preincubation of 10 min, 200 nM PRMT1 or PRMT5 was added to the assay before adding in the substrate (AcH4-21) at 225 μM. After 15 min, the reaction was quenched with 0.5% TFA (0.1% final concentration), vortexed, and incubated for an additional 10 min. To detect product formation, the MTase-Glo reagent was added for 30 min at rt, followed by addition of the MTase-Glo detection solution for an additional 30 min. Finally, the luminescence signal was measured using a BioTek Synergy two multi-mode microplate reader. The values were converted to product concentration using a standard curve of SAH (0–5 μM). The IC50 values were determined using Equation 1 and fit to a curve using GraFit 7.03.(1) FractionalactivityofPRMT=1/(1+([I]/IC50)) IC50 is the concentration of inhibitor resulting in 50% PRMT activity, and [I] is the inhibitor concentration.

PRMT5 = target: T2, PRMT5 (Homo sapiens, UniProt O14744); assay: MTase-Glo methyltransferase IC50 assay, PRMT5; assay type: biochemical; details: 200 nM PRMT5, AcH4-21 substrate 225 μM
T2 construct: made in house
Procedure: as §1

T1 sequence (Q99873 1-353 isoform Q99873-3, species assumed): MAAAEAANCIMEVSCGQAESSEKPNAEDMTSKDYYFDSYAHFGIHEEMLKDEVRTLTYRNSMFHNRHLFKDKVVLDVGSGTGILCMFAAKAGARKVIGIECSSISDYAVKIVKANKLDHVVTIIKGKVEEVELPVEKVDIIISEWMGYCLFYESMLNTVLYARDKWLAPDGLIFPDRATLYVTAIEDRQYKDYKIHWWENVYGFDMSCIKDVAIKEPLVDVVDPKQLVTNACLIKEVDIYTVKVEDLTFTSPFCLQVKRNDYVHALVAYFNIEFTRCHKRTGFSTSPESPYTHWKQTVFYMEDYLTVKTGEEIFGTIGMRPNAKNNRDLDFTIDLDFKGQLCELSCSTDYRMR
T2 sequence (O14744 whole entry, species assumed): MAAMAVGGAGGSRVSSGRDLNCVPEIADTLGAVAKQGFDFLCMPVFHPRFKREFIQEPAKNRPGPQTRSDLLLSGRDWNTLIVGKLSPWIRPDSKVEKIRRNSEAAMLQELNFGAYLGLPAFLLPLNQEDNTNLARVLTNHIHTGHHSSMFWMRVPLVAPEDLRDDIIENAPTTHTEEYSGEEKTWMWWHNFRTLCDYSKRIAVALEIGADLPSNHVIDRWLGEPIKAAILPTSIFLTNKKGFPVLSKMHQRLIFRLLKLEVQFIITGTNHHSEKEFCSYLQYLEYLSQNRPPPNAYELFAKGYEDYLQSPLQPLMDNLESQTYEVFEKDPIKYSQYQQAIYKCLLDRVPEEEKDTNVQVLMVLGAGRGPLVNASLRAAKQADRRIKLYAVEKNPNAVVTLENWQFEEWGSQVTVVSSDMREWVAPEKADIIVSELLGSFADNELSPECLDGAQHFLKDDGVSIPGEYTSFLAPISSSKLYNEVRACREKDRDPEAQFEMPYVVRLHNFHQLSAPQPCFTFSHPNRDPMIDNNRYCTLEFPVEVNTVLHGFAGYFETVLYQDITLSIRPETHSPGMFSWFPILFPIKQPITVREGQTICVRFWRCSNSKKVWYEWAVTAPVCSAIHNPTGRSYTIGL

IC50 (PRMT1) | Compound | increase in potency (PRMT1 IC50) compared to the non-warhead H4-16 peptoid (PRMT1; warhead peptoid vs corresponding original peptoid) | IC50 (PRMT5)
46.9 ± 4.86 µM | CC(=O)N[C@@H](CO)C(=O)NCC(=O)N[C@@H](CCCNC(=N)CCl)C(=O)NCC(=O)N[C@@H](CCCCN)C(=O)NCC(=O)NCC(=O)N[C@@H](CCCCN)C(=O)NCC(=O)N[C@@H](CC(C)C)C(=O)NCC(=O)N[C@@H](CCCCN)C(=O)NCC(=O)NCC(=O)N[C@@H](C)C(=O)N[C@@H](CCCCN)C(N)=O [AcH4-16 warhead peptide] (Ac-SG[X2]GKGGKGLGKGGAK-NH2; C-terminus assumed) | – | –
29.6 ± 5.16 µM | CC(C)C[C@H](NC(=O)CNC(=O)[C@H](CCCCN)NC(=O)CNC(=O)CNC(=O)[C@H](CCCCN)NC(=O)CNC(=O)[C@H](CCCNC(=N)CCl)NC(=O)CNC(=O)[C@@H](N)CO)C(=O)NCC(=O)N[C@@H](CCCCN)C(=O)NCC(=O)NCC(=O)N[C@@H](C)C(=O)N[C@@H](CCCCN)C(N)=O [Compound P2 Peptide] (H-SG[X2]GKGGKGLGKGGAK-NH2; N-terminus and C-terminus assumed) | – | –
– | CC(=O)N(CCO)CC(=O)NCC(=O)N(CCCNC(=N)CCl)CC(=O)NCC(=O)N(CCCCN)CC(=O)NCC(=O)NCC(=O)N(CCCCN)CC(=O)NCC(=O)N(CC(=O)NCC(=O)N(CCCCN)CC(=O)NCC(=O)NCC(=O)N(C)CC(=O)N(CCCCN)CC(N)=O)CC(C)C [compound P2A] (Ac-[Gly(N-CH2CH2OH)]G[X1]G[Nlys]GG[Nlys]G[Nleu]G[Nlys]GG[Sar][Nlys]-NH2) | – | > 500 µM

Compound | IC50 (PRMT1) | increase in potency (PRMT1 IC50) compared to the non-warhead H4-16 peptoid (PRMT1; warhead peptoid vs corresponding original peptoid) | IC50 (PRMT5)
CC(C)CN(CC(=O)NCC(=O)N(CCCCN)CC(=O)NCC(=O)NCC(=O)N(C)CC(=O)N(CCCCN)CC(N)=O)C(=O)CNC(=O)CN(CCCCN)C(=O)CNC(=O)CNC(=O)CN(CCCCN)C(=O)CNC(=O)CN(CCCNC(=N)CCl)C(=O)CNC(=O)CNCCO [compound P2] (H-[Gly(N-CH2CH2OH)]G[X1]G[Nlys]GG[Nlys]G[Nleu]G[Nlys]GG[Sar][Nlys]-NH2) | 8.73 ± 0.314 µM | 45 fold and > 45 fold | > 500 µM
